{"source": "patent US20240307300A1", "about": "“AN IMPROVED PROCESS FOR THE PREPARATION OF AN AQUEOUS OPHTHALMIC SOLUTION OF DIFLUPREDNATE” (SUN PHARMA ADVANCED RESEARCH COMPANY LIMITED, priority 2021, published 2024)", "origin": "cited, not measured here", "conditions": "background statement"}
{"smiles": "CCCC(=O)O[C@]1(C(=O)COC(C)=O)CC[C@H]2[C@@H]3C[C@H](F)C4=CC(=O)C=C[C@]4(C)[C@@]3(F)[C@@H](O)C[C@@]21C", "note": "[Difluprednate]", "values": [{"measurement": "solubility in aqueous vehicle", "value": "practically insoluble"}]}
